These results are taken from patent publication US20200000840A1, “USE OF CYCLODEXTRINS TO REDUCE ENDOCYTOSIS IN MALIGNANT AND NEURODEGENERATIVE DISORDERS” (priority 2016, published 2020).

Several values for one entry are separate records, joined by “and”; a condition that tells them apart may be missing. Identical values can stand only once. Like-named read-outs stand apart in the source and are kept apart here. Marks after values point to notes of the source that are not given here.

The subject of data set [1] is MCF-7 cells. Description: Wound healing / gap closure migration assay (CytoSelect CBA-120). In kind it is cell-based, human. The conditions noted are these: treated 2 hours. The protocol: (§1) Published results have shown that β-CD inhibits human MDA-MB 231 cell migration (Guerra et al. 2016). This inhibition was attributed to the ability of β-CD to “deplete cholesterol”. β-CD, however, depletes also phospholipids. […] Cells were cultured in 24-well culture plates (Cytoselect CBA-120, 0.9 mm wound healing/gap closure migration assay) for 24 hours with wound healing insert in place. […] Protocol: Warm up the 24-well plate (CBA-120, Cell BioLabs Inc.) with 0.9 mm CytoSelect Wound Healing Inserts at room temperature for 10 minutes. Using sterile forceps, orient the desired number of inserts in the plate wells with their “wound field” aligned in the same direction. Create a cell suspension containing 0.5-1.0×10^6 cells/ml in media containing 10% fetal bovine serum (FBS). Add 500 μL of cell suspension to each well by carefully inserting the pipette tip through the open end at the top of the insert. For optimal cell dispersion, add 250 μL of cell suspension to either side of the open ends at the top of the insert. Incubate cells in a cell culture incubator for 12-24 hours. Carefully remove the insert from the well to begin the wound healing assay. Use sterile forceps to grab and lift the insert slowly from the plate well. Slowly aspirate and discard the media from the wells. Wash wells with media to remove dead cells and debris. Finally, add media to wells to keep cells hydrated. Repeat wash if wells still have debris or unattached cells. When washing is complete, add media with FBS and/or compounds to continue cell culture and wound healing process. Agents that inhibit or stimulate cell migration can be added directly to the wells. Incubate cells in a cell culture incubator (2 hours) and then wash cells with PBS and then add fresh media without compounds. Incubate 12-24 hours before wash and fixing. Remove the fixation solution and add 400 μL of Cell Stain Solution to each well. Allow the stain to incubate with the cells for 15 minutes at room temperature. Aspirate and discard the solution. Carefully wash each stained well 3× with deionized water. Discard washes and allow cells to dry at room temperature. Cells that migrated into the wounded area or protruded from the border of the wound were visualized and photographed under an inverted microscope. Determine the surface area of the defined wound area: Total Surface Area=0.9 mm x length. Determine the surface area of the migrated cells into the wound area: Migrated Cell Surface Area=length of cell migration (mm)×2 x length. Percent Closure (%)=Migrated Cell Surface Area/Total Surface Area x 100.

The subject of data set [2] is MDA-MB-231 cells. The data set is described as above. In kind it is cell-based, human. The conditions noted are these: treated 2 hours. The protocol: as §1
The test system of data set [3] is MDA-MB 231 and MCF-7 human breast epithelial cell lines. Kind of data set: Wound healing assay, overall statements for both cell lines. In kind it is cell-based. How it is done:
as §1

The conditions of data set [4]: Table 2; cited from earlier work.
The test system of data set [5] is BBB. The conditions noted are these: cited from earlier work; for Transport across BBB: 2 h, 1 mM.
In data set [6] the test system is human epithelial colorectal adenocarcinoma (Caco-2) cells. The conditions noted are these: cited from earlier work.
The target in data set [7] is BC resistance protein (BCRP/ABCG2) (Homo sapiens, UniProt Q9UNQ0). The conditions noted are these: cited from earlier work.
Data set [8] relates to H7 Lewis lung cancer cell lines. The conditions noted are these: three H7 Lewis lung cancer cell lines; cited from earlier work.
The test system of data set [9] is BC and prostate cancer cell lines. The conditions noted are these: cancer cell lines vs normal counterparts; cited from earlier work.
In data set [10] the test system is MDA-MB-241 and ZR751 BC cells. The conditions noted are these: cited from earlier work.
Data set [11] relates to MCF7 BC cells. The conditions noted are these: cited from earlier work.
The test system of data set [12] is urothelial cancer cells. The conditions noted are these: cited from earlier work.
The test system of data set [13] is RTK-[PIP2]-PI3K-[PIP3]-AKT signaling in HeLa cells. The conditions noted are these: cited from earlier work.
In data set [14] the test system is leukemia cell lines. The conditions noted are these: cited from earlier work.
Data set [15] deals with mouse model of BC. The conditions noted are these: cited from earlier work.
The test system of data set [16] is H7-O Lewis lung cancer cells. The conditions noted are these: mice implanted with H7-O Lewis lung cancer cells; cited from earlier work.
Data set [17] has as its system primary effusion lymphoma (PEL). The conditions noted are these: mice; cited from earlier work.
Data set [18] deals with α-synuclein. The conditions noted are these: mice, neuronal cell body and synapses; cited from earlier work.
For data set [19], the system named is MDA-MB-231 BC cells. The conditions noted are these: cited from earlier work.
The test system of data set [20] is transferrin endocytosis. The conditions noted are these: 10 mM; cited from earlier work.
Data set [21] relates to human keratinocytes. The conditions noted are these: cited from earlier work.
For data set [22] the following is noted: rats, rabbits, dogs, and humans; cited from earlier work.
Data set [23] has as its system Ab1-40/42. The conditions noted are these: rats, stereotactical injection into the hippocampus; cited from earlier work.
For data set [24], the system named is rats. The conditions noted are these: rat; cited from earlier work.
For data set [25], the system named is rats. The conditions noted are these: […] daily; cited from earlier work.
Data set [26] has as its system rats. The conditions noted are these: cited from earlier work.
The test system of data set [27] is human erythrocytes. The conditions noted are these: human erythrocytes; cited from earlier work.
For data set [28] the following is noted: in vivo; cited from earlier work.

Chain of BC resistance protein (BCRP/ABCG2) (Q9UNQ0 whole entry): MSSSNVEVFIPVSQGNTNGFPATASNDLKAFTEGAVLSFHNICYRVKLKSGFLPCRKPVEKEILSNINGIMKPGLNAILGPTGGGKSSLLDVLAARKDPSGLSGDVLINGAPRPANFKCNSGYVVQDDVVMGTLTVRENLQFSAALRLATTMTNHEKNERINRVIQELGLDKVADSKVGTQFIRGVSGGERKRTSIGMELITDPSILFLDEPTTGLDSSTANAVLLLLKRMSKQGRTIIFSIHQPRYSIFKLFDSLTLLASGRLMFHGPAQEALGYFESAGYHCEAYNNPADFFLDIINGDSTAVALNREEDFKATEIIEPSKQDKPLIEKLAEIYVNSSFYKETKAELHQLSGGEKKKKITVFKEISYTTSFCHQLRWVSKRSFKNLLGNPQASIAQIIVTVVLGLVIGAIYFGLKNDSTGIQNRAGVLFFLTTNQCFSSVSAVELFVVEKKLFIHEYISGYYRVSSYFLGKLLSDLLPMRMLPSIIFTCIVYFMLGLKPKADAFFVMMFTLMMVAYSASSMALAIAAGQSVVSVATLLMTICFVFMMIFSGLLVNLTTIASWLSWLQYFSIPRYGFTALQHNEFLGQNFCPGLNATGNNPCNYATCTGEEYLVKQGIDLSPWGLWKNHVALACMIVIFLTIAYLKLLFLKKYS

Regarding “hydroxypropyl-alpha-cyclodextrin [HPaCD]”, the average wound closure in [1] (1 mM) is 41.33%; in data set [1] (2 mM), 36.00%; in data set [1] (4 mM), 28.67%; in data set [2] (1 mM), 53.00%; in data set [2] (2 mM), 40.00%; in data set [2] (4 mM), 31.67%. The “wound closure (Percent Closure), replications r1-r3” value was 35.00% and 41.00% and 48.00% in data set [1] (1 mM); 40.00% and 30.00% and 38.00% in data set [1] (2 mM); 28.00% and 22.00% and 36.00% in [1] (4 mM); 47.00% and 53.00% and 59.00% in data set [2] (1 mM); 40.00% and 33.00% and 47.00% in data set [2] (2 mM); 38.00% and 32.00% and 25.00% in data set [2] (4 mM). Moreover, the “inhibition at 1 mM HPaCD compared with 2 mM HPbCD” value in [3] is “superior to inhibition at 2 mM HPbCD”. For the same compound, the migration versus concentration entry in [3] (1-4 mM) was “migration decreased with higher concentration”. Further, in [3] (all cases), the “effect on migration, HPaCD compared with HPbCD” value is given as “stronger effect on migration than HPbCD”. For the same compound, the Solubility in water in data set [4] is on record as ~500^a g/l. In addition, in data set [5], the “Transport across BBB” value was 26.7 (1 mM) %. In data set [5], the BBB breakdown was 2.5 mM. The cytotoxicity result in data set [6] (Caco-2 cells) was “less cytotoxic than α-cyclodextrin”.

Take methyl-β-cyclodextrin [MβCD]: in data set [7], the “decrease in activity of BCRP/ABCG2” value is 40%. For the same compound, in data set [8], the invasion activity result is “suppressed invasion activity”. Besides, the “sensitivity to induced cell death” value in data set [9] is reported as “more sensitive to MβCD-induced cell death than their normal counterparts”. For the same compound, in data set [10], the “spheroid migration and invasion” value is “inhibited”. In [11], the endocytosis entry is listed as “inhibited” and the migration entry was “inhibited”. Moreover, the “toxicity, invasive vs non-invasive cells” value in data set [12] is recorded as “more toxic for invasive than for non-invasive urothelial cancer cells”. Besides, the “RTK-[PIP2]-PI3K-[PIP3]-AKT signaling” value in [13] is “interfered with RTK-[PIP2]-PI3K-[PIP3]-AKT signaling”. Moreover, the “growth of leukemia cell lines” value in data set [14] is “inhibited the growth”. For the same compound, the concentration in tumor entry in data set [15] is “higher concentration in tumor than in other cells (except kidney and liver)”. In addition, the “efficacy in mouse model of BC” value in [15] (in vivo) is “effective”. Besides, the “number of lung metastases” value in [16] is on record as “reduced the number of lung metastases”. Moreover, in data set [17], the “growth of primary effusion lymphoma” value is “inhibited growth”. In addition, in data set [18], the “accumulation of α-synuclein” value was “reduced accumulation of α-synuclein”. Besides, the “internalization of exosomes containing integrins” value in data set [19] is listed as “inhibited the internalization of exosomes”.

As for `OC[C@H]1O[C@@H]2O[C@H]3[C@H](O)[C@@H](O)[C@@H](O[C@H]4[C@H](O)[C@@H](O)[C@@H](O[C@H]5[C@H](O)[C@@H](O)[C@@H](O[C@H]6[C@H](O)[C@@H](O)[C@@H](O[C@H]7[C@H](O)[C@@H](O)[C@@H](O[C@H]8[C@H](O)[C@@H](O)[C@@H](O[C@H]1[C@H](O)[C@H]2O)O[C@@H]8CO)O[C@@H]7CO)O[C@@H]6CO)O[C@@H]5CO)O[C@@H]4CO)O[C@@H]3CO` [β-cyclodextrin, beta-cyclodextrin], in [5], the “Transport across BBB” value is 9.3 (1 mM) % and the BBB breakdown is reported as 2.5 mM. For the same compound, in [20], the “reduction of transferrin endocytosis” value is on record as 80%. Also, in [21], the apoptotic cell death entry is on record as “induces caspase-dependent apoptotic cell death”. Besides, the “steady-state volume of distribution” value in [22] is recorded as “corresponds well with the extracellular fluid volume of each species”. Moreover, in [23], the “toxicity of Ab1-40/42” value is “Toxicity of Ab1-40/42 was reduced”. Besides, the median lethal dose (LD50) in data set [24] is on record as 788 mg/kg. Besides, in data set [25], the “deaths, daily doses s.c.” value was “no deaths”. Besides, the “acute i.v. toxicity in rats” value in [26] is 1 g/kg.

On to maltosyl-α-cyclodextrin, for which, in data set [6], the cytotoxicity entry is “less cytotoxic than α-cyclodextrin”.

Take `OC[C@H]1O[C@@H]2O[C@H]3[C@H](O)[C@@H](O)[C@@H](O[C@H]4[C@H](O)[C@@H](O)[C@@H](O[C@H]5[C@H](O)[C@@H](O)[C@@H](O[C@H]6[C@H](O)[C@@H](O)[C@@H](O[C@H]7[C@H](O)[C@@H](O)[C@@H](O[C@H]8[C@H](O)[C@@H](O)[C@@H](O[C@H]9[C@H](O)[C@@H](O)[C@@H](O[C@H]1[C@H](O)[C@H]2O)O[C@@H]9CO)O[C@@H]8CO)O[C@@H]7CO)O[C@@H]6CO)O[C@@H]5CO)O[C@@H]4CO)O[C@@H]3CO` [γ-CD, gamma-cyclodextrin]: in data set [27], the hemolytic activity entry is recorded as “β-CD>α-CD>γ-CD”.

For alendronate-β-CD [ALN-β-CD], in data set [28], the effect on bone entry is “bone-anabolic”.
